ChEMBL document CHEMBL2163199, “Moderate chemical modifications of WAY-100635 improve the selectivity for 5-HT1A versus D4 receptors” (Bioorg Med Chem Lett, 2012)
Active and inactive are the calls of the source. The calls are words filed in the database; no cut-off is given here.

How the values were obtained:
D(4) dopamine receptor [1] = target: T1, D(4) dopamine receptor (Homo sapiens, UniProt P21917); assay: biochemical
T1 sequence (P21917 whole entry): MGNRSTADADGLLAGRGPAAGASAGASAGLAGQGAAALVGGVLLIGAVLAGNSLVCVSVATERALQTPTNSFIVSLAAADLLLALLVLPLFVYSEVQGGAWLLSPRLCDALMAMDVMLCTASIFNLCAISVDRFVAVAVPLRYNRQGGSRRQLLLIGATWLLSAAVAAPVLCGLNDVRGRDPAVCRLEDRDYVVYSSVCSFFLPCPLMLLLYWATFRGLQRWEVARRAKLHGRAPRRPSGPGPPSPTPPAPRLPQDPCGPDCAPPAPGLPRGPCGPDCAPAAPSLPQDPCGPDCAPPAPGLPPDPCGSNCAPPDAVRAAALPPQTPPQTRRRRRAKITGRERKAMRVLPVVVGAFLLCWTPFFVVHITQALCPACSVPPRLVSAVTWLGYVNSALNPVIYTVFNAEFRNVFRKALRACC
Description: Displacement of [3H]-YM-09151-2 from human cloned D4 receptor expressed in Sf9 cells after 60 mins by liquid scintillation counting

[2] = target: T2, 5-hydroxytryptamine receptor 1A (Homo sapiens, UniProt P08908); assay: biochemical
T2 sequence (P08908 whole entry): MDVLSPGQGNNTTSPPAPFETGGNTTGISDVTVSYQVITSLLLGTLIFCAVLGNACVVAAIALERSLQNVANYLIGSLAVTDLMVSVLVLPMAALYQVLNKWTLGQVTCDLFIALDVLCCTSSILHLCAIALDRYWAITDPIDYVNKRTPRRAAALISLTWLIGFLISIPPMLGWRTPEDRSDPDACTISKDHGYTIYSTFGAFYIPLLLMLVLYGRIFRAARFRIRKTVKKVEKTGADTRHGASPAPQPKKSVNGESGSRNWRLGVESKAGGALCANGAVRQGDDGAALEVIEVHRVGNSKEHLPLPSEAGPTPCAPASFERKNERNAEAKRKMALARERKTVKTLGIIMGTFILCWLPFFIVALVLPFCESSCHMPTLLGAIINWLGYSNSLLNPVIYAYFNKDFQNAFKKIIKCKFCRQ
Description: Displacement of [3H]8-OH-DPAT from human cloned 5-HT1A receptor expressed in CHO cells after 60 mins by liquid scintillation counting

[3] = buffer, pH 7.4
Description: Lipophilicity, log K of the compound in 50 mM PBS at pH 7.4-10 to 60% methanol mixture by HPLC method

[4] = target: 5-hydroxytryptamine receptor 6 (Homo sapiens) (UniProt P50406); assay: Binding affinity to 5HT6 receptor at 10 uM by radioligand binding assay
[5] = target: 5-hydroxytryptamine receptor 1D (Homo sapiens) (UniProt P28221); assay: Binding affinity to 5HT1D receptor at 10 uM by radioligand binding assay
Sequence of 5-hydroxytryptamine receptor 1D (Homo sapiens) (P28221 whole entry): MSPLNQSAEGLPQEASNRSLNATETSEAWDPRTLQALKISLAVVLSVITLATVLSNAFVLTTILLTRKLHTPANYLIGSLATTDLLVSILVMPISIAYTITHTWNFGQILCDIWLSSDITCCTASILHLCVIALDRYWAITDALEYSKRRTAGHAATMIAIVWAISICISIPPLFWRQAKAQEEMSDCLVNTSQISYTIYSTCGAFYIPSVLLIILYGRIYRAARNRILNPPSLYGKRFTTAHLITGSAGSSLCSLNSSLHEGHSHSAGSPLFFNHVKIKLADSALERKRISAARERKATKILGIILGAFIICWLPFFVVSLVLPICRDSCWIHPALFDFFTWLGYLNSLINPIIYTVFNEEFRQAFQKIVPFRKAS

[6] = target: 5-hydroxytryptamine receptor 1B (Homo sapiens) (UniProt P28222); assay: Binding affinity to 5HT1B receptor at 10 uM by radioligand binding assay
[7] = target: Histamine H3 receptor (Homo sapiens) (UniProt Q9Y5N1); assay: Binding affinity to histamine H3 receptor at 10 uM by radioligand binding assay
[8] = target: Muscarinic acetylcholine receptor M3 (Homo sapiens) (UniProt P20309); assay: Binding affinity to muscarinic M3 receptor at 10 uM by radioligand binding assay
[9] = target: D(3) dopamine receptor (Homo sapiens) (UniProt P35462); assay: Binding affinity to dopamine D3 receptor at 10 uM by radioligand binding assay
Sequence of D(3) dopamine receptor (Homo sapiens) (P35462 whole entry): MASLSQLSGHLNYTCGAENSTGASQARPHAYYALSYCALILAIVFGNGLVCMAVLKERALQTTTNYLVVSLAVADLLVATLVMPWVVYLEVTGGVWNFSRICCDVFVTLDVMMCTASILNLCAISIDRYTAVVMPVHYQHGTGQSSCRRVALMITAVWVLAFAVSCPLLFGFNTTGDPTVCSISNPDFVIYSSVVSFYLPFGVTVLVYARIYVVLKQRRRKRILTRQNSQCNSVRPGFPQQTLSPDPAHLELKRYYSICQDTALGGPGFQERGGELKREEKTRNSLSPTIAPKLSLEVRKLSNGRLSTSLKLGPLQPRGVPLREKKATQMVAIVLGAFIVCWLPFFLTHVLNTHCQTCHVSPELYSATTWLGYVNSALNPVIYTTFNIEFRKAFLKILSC

[10] = target: 5-hydroxytryptamine receptor 1E (Homo sapiens) (UniProt P28566); assay: Binding affinity to 5HT1E receptor at 10 uM by radioligand binding assay
Sequence of 5-hydroxytryptamine receptor 1E (Homo sapiens) (P28566 whole entry): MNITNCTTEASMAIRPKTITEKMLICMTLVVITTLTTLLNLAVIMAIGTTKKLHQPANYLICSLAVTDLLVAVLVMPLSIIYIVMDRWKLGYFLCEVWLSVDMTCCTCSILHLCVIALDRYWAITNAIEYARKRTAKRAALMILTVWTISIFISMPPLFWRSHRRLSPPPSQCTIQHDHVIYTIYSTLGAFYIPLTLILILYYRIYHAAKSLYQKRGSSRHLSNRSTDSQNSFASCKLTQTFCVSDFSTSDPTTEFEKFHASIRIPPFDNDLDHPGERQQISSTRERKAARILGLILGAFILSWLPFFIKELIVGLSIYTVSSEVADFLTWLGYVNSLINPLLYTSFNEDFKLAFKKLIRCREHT

[11] = target: Muscarinic acetylcholine receptor M4 (Homo sapiens) (UniProt P08173); assay: Binding affinity to muscarinic M4 receptor at 10 uM by radioligand binding assay
[12] = target: Alpha-1A adrenergic receptor (Homo sapiens, UniProt P35348); assay: Binding affinity to adrenergic alpha1A receptor by radioligand binding assay; settings: read-out: Ki(app)
[13] = target: D(1A) dopamine receptor (Homo sapiens) (UniProt P21728); assay: Binding affinity to dopamine D1 receptor at 10 uM by radioligand binding assay
[14] = target: Alpha-2A adrenergic receptor (Homo sapiens) (UniProt P08913); assay: Binding affinity to adrenergic alpha2A receptor at 10 uM by radioligand binding assay
Sequence of Alpha-2A adrenergic receptor (Homo sapiens) (P08913 whole entry): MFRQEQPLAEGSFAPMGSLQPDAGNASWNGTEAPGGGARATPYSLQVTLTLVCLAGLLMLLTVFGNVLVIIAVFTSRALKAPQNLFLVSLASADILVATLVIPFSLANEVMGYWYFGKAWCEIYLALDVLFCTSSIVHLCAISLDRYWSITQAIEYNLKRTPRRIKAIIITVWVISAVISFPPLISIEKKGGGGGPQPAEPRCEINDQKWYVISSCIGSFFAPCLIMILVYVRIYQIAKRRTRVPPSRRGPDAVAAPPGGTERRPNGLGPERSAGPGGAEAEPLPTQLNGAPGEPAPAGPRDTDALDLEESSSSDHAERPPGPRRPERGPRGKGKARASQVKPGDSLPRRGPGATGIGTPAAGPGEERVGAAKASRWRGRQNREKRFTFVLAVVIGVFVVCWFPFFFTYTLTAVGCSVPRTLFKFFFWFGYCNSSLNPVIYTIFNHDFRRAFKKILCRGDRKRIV

[15] = target: Sigma non-opioid intracellular receptor 1 (Homo sapiens) (UniProt Q99720); assay: Binding affinity to sigma 1 receptor at 10 uM by radioligand binding assay
[16] = target: Alpha-1B adrenergic receptor (Homo sapiens, UniProt P35368)
Sequence of Alpha-1B adrenergic receptor (P35368 whole entry): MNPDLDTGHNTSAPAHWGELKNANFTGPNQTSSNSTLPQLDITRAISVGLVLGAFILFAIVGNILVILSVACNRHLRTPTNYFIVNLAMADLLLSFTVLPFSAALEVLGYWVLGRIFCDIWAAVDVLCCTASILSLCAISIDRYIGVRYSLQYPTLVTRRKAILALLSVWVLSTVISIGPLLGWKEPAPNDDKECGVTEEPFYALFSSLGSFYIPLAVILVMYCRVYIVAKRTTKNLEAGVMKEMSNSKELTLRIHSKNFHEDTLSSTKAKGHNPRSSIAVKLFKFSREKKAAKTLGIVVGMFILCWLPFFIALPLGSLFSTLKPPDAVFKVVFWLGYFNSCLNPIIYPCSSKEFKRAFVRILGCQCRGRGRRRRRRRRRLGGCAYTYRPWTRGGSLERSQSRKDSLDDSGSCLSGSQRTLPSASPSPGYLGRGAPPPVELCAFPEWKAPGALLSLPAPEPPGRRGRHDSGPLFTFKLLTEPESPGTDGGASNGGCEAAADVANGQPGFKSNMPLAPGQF
Description: Binding affinity to adrenergic alpha1B receptor by radioligand binding assay

[17] = target: D(1B) dopamine receptor (Homo sapiens) (UniProt P21918); assay: Binding affinity to dopamine D5 receptor at 10 uM by radioligand binding assay
Sequence of D(1B) dopamine receptor (Homo sapiens) (P21918 whole entry): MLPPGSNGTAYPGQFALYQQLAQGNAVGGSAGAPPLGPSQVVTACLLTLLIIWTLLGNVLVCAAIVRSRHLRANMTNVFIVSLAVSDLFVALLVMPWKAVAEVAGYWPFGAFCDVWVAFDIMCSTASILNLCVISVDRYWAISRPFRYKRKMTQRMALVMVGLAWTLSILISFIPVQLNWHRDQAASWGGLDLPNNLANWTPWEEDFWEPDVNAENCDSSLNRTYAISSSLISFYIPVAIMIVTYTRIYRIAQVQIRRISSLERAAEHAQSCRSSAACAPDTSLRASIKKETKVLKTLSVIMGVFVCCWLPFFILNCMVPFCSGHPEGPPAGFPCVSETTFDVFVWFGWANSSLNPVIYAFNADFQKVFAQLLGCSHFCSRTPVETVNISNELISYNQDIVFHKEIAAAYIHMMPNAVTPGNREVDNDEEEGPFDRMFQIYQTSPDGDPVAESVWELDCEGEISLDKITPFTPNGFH

[18] = Binding affinity to rat benzodiazepine binding site at 10 uM by radioligand binding assay
[19] = target: 5-hydroxytryptamine receptor 2B (Homo sapiens, UniProt P41595); assay: Binding affinity to 5HT2B receptor by radioligand binding assay; settings: read-out: Ki(app)
[20] = target: Muscarinic acetylcholine receptor M2 (Homo sapiens) (UniProt P08172); assay: Binding affinity to muscarinic M2 receptor at 10 uM by radioligand binding assay
[21] = target: Sodium-dependent dopamine transporter (Homo sapiens) (UniProt Q01959); assay: Binding affinity to DAT at 10 uM by radioligand binding assay
[22] = target: Beta-3 adrenergic receptor (Homo sapiens) (UniProt P13945); assay: Binding affinity to adrenergic beta3 receptor at 10 uM by radioligand binding assay
[23] = Binding affinity to GABAA receptor at 10 uM by radioligand binding assay
[24] = target: 5-hydroxytryptamine receptor 5A (Homo sapiens) (UniProt P47898); assay: Binding affinity to 5HT5A receptor at 10 uM by radioligand binding assay
Sequence of 5-hydroxytryptamine receptor 5A (Homo sapiens) (P47898 whole entry): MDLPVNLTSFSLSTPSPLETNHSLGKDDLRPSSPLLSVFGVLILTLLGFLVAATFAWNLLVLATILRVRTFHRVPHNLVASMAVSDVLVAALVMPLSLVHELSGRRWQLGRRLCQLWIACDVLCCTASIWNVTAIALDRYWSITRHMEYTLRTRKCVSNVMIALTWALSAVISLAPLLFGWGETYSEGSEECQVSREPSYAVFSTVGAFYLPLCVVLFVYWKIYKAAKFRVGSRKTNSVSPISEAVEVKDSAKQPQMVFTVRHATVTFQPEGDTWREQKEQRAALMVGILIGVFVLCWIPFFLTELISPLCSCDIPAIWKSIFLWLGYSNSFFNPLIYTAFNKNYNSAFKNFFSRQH

[25] = target: 5-hydroxytryptamine receptor 2C (Homo sapiens) (UniProt P28335); assay: Binding affinity to 5HT2C receptor at 10 uM by radioligand binding assay
[26] = target: Beta-1 adrenergic receptor (Homo sapiens) (UniProt P08588); assay: Binding affinity to adrenergic beta1 receptor at 10 uM by radioligand binding assay
[27] = target: Alpha-2B adrenergic receptor (Homo sapiens) (UniProt P18089); assay: Binding affinity to adrenergic alpha2B receptor at 10 uM by radioligand binding assay
[28] = target: 5-hydroxytryptamine receptor 7 (Homo sapiens, UniProt P34969)
Sequence of 5-hydroxytryptamine receptor 7 (P34969 whole entry): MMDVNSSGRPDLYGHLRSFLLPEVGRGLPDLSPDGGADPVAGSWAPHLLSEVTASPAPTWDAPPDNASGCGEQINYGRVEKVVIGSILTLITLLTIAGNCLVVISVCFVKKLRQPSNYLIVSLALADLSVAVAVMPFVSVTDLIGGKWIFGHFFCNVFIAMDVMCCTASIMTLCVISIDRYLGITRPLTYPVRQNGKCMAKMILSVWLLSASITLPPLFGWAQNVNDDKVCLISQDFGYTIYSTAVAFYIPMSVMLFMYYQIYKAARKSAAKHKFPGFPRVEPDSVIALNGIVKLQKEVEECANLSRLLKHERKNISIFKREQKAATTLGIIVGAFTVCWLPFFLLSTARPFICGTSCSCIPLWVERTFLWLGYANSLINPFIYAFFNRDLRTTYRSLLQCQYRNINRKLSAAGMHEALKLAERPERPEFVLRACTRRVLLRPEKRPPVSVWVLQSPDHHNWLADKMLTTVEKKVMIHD
Description: Binding affinity to 5HT7 receptor by radioligand binding assay

[29] = target: T2, 5-hydroxytryptamine receptor 1A
Description: Binding affinity to 5HT1A receptor by radioligand binding assay

D(4) dopamine receptor [30] = target: T1, D(4) dopamine receptor
Description: Binding affinity to dopamine D4 receptor by radioligand binding assay

[31] = Binding affinity to sigma 2 receptor at 10 uM by radioligand binding assay
[32] = target: 5-hydroxytryptamine receptor 2A (Homo sapiens, UniProt P28223); assay: Binding affinity to 5HT2A receptor by radioligand binding assay; settings: read-out: Ki(app)
[33] = target: Beta-2 adrenergic receptor (Homo sapiens) (UniProt P07550); assay: Binding affinity to adrenergic beta2 receptor at 10 uM by radioligand binding assay
Sequence of Beta-2 adrenergic receptor (Homo sapiens) (P07550 whole entry, looked up): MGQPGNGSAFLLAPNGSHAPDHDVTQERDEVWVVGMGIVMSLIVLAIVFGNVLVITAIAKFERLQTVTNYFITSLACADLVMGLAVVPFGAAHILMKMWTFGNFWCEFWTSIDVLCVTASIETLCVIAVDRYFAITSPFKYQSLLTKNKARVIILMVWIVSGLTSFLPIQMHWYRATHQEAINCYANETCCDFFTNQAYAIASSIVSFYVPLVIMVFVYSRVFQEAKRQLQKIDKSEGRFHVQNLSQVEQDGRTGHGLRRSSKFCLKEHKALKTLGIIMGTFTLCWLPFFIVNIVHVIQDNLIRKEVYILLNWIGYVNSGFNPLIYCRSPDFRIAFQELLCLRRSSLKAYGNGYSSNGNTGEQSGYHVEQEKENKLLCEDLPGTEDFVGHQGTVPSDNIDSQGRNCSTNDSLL

[34] = target: D(2) dopamine receptor (Homo sapiens) (UniProt P14416); assay: Binding affinity to dopamine D2 receptor at 10 uM by radioligand binding assay
[35] = target: Muscarinic acetylcholine receptor M1 (Homo sapiens) (UniProt P11229); assay: Binding affinity to muscarinic M1 receptor at 10 uM by radioligand binding assay
Sequence of Muscarinic acetylcholine receptor M1 (Homo sapiens) (P11229 whole entry): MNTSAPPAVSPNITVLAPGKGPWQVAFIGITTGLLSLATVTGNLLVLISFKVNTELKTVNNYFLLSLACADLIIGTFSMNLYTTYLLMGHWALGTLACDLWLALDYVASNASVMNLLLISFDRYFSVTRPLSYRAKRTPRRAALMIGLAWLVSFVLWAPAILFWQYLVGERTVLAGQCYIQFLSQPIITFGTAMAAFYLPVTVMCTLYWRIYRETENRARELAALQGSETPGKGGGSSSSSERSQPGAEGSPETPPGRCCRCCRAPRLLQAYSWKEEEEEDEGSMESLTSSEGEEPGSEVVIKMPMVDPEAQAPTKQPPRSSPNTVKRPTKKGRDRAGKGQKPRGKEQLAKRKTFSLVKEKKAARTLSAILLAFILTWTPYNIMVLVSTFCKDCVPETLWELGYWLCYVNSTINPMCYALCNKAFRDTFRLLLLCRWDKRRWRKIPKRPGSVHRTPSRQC

[36] = target: 5-hydroxytryptamine receptor 3A (Homo sapiens) (UniProt P46098); assay: Binding affinity to 5HT3 receptor at 10 uM by radioligand binding assay
Sequence of 5-hydroxytryptamine receptor 3A (Homo sapiens) (P46098 whole entry): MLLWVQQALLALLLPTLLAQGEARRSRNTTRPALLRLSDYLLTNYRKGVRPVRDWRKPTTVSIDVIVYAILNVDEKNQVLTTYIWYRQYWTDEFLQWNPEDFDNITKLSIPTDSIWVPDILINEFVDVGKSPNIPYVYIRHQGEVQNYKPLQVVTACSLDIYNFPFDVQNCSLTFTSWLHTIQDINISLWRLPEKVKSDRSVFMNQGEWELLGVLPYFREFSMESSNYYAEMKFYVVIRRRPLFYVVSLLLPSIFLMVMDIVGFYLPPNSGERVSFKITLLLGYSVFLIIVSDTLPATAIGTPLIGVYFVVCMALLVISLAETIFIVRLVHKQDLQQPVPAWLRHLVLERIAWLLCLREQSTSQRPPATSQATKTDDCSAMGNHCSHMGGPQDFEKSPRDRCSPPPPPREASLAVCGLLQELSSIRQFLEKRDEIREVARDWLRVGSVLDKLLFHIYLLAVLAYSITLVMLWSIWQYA

[37] = target: T3, 5-hydroxytryptamine receptor 1A (Rattus norvegicus) (UniProt P19327); assay: Agonist activity of 5-HT1A receptor in Wistar rat dorsal raphe serotonergic neuron assessed as inhibition of firing at 1 nM to 1 uM by electrophysiological test; format: functional
T3 sequence (whole entry): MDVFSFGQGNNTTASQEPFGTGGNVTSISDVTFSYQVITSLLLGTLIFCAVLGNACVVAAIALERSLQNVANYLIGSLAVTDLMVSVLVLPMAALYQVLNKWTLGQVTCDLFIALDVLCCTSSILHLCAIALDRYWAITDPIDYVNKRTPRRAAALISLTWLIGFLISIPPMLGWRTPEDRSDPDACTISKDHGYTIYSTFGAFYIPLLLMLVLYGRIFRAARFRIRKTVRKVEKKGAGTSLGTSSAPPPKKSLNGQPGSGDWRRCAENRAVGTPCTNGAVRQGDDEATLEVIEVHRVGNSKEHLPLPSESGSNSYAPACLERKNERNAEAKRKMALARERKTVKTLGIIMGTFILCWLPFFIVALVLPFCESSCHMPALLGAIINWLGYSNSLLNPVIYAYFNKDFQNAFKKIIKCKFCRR

[38] = target: T3, 5-hydroxytryptamine receptor 1A (Rattus norvegicus); assay: Antagonist activity of 5-HT1A receptor in Wistar rat dorsal raphe serotonergic neuron assessed as reversal of 8-OH-DPAT-induced decrease in firing rate at 100 nM by electrophysiological test; format: functional; parameters: scale not given: the % may be the effect or the level left
[39] = target: Muscarinic acetylcholine receptor M5 (Homo sapiens) (UniProt P08912); assay: Binding affinity to muscarinic M5 receptor at 10 uM by radioligand binding assay

COc1ccccc1N1CCN(CCN(C(=O)c2cccc3ccccc23)c2ccccn2)CC1
Ki (D(4) dopamine receptor [1]): 69 nM
Ki [2]: 1.89 nM
log K [3]: 3.26

O=C(c1cnc2ccccc2n1)N(CCN1CC=C(c2ccccc2)CC1)c1ccccn1
Ki (D(4) dopamine receptor [1]): 35 nM
Ki [2]: 8.27 nM
log K [3]: 3.33

O=C(c1cccc2ccccc12)N(CCN1CC=C(c2ccccc2)CC1)c1ccccn1
Ki (D(4) dopamine receptor [1]): 252 nM
Ki [2]: 14 nM
log K [3]: 4.07

O=C(C1CCCCC1)N(CCN1CC=C(c2ccccc2)CC1)c1ccccn1
inhibition [4]: < 50%
inhibition [5]: < 50%
inhibition [6]: < 50%
inhibition [7]: < 50%
Ki (D(4) dopamine receptor [1]): 385 nM
inhibition [8]: < 50%
inhibition [9]: > 50%
inhibition [10]: < 50%
inhibition [11]: < 50%
Ki [12]: 39 nM
inhibition [13]: < 50%
inhibition [14]: < 50%
inhibition [15]: > 50%
Ki [16]: 296 nM
inhibition [17]: < 50%
inhibition [18]: < 50%
Ki [19]: 105 nM
inhibition [20]: < 50%
inhibition [21]: < 50%
Ki [2]: 0.51 nM
inhibition [22]: < 50%
inhibition [23]: < 50%
inhibition [24]: < 50%
inhibition [25]: < 50%
inhibition [26]: < 50%
inhibition [27]: < 50%
Ki [28]: 60 nM
log K [3]: 3.84
Ki [29]: 0.69 nM
Ki (D(4) dopamine receptor [30]): 55 nM
inhibition [31]: > 50%
Ki [32]: 54 nM
inhibition [33]: < 50%
inhibition [34]: > 50%
inhibition [35]: < 50%
inhibition [36]: < 50%
inhibition [37]: inactive
Activity [38]: 44%
inhibition [39]: < 50%

O=C(c1cccc2ccccc12)N(CCN1CCN(c2ccccc2)CC1)c1ccccn1
Ki (D(4) dopamine receptor [1]): 550 nM
Ki [2]: 35.8 nM
log K [3]: 3.27
